Experimental data published in US6355799B1, “Substituted benzene compounds, process for their preparation, and herbicidal and defoliant compositions containing them” (ISK Americas Incorporated, priority 1997, dated 2002).

Legend:
Assay type in all cases: in vivo
[1] = test system: field corn (Zea mays L., var. Dekalb 535, CORN); test: Pre-emerge test, crop safety; conditions: rating scale 0-100, 14 days after application
Procedure, shortened: (§1)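 Sandy loam pots; pre-emerge: sown 1 d pre-spray, surface-watered after, then bottom-watered. Post-emerge: sown 8–21 d before, 2–3 leaf stage, + 0.25% v/v NIS, bottom-watered. Acetone, 187 l/ha track spray, 15–1000 g ai/ha. 0–100 injury score, day 14.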

[2] = test system: upland rice (Oryza sp., var. Tebonnet, RICE); test: Pre-emerge test, crop safety; conditions: rating scale 0-100, 14 days after application
Procedure, shortened: as §1

[3] = test system: field corn (Zea mays L., var. Dekalb 535, CORN); test: Post-emerge test, crop safety; conditions: post-emerge, crop damage rating 0-100 at 14 days after application
Procedure, shortened: (§2)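 Compounds in acetone were track-sprayed at 15-1000 g ai/ha (187 l/ha) on sandy loam pots: pre-emerge one day after seeding, post-emerge at 2-3 leaf stage with 0.25% v/v non-ionic surfactant. Phytotoxicity was rated 14 days later on a 0 (no damage) to 100 (complete death) scale.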

[4] = test system: upland rice (Oryza sp., var. Tebonnet, RICE); test: Post-emerge test, crop safety; conditions: post-emerge, crop damage rating 0-100 at 14 days after application
Procedure, shortened: as §2

[5] = test system: velvetleaf (Abutilon theophrasti, ABUTH); test: Pre-emerge test, greenhouse herbicide activity screening; conditions: rating scale 0-100, 14 days after application
Text: (§3) A standard greenhouse herbicide activity screening system was used to evaluate the herbicidal efficacy and crop safety of these test compounds. Seven broadleaf weed species including redroot pigweed (Amaranthus retroflexus, AMARE, velvetleaf (Abutilon theophrasti, ABUTH), sicklepod (Cassia obtusifolia, CASOB), ivyleaf morningglory (Ipomoea hederacea, IPOHE), lambsquarters (Chenopodium album, CHEAL), common ragweed (Ambrosia artemisizfolia L., AMBEL), and cocklebur (Xanthium strumarium, XANST) were used as test species. Four grass weed species including green foxtail (Setaria viridis, SETVI), barnyardgrass (Echinochloa crus-galli, ECHCG), johnsongrass (Sorghum halepense, SORHA), and large crabgrass (Digitaria sanguinalis, DIGSA) were also used. In addition, three crop species, field corn (Zea mays L., var. Dekalb 535, CORN), soybean (Glycine max L., var. Pella 86, SOY), and is upland rice (Oryza sp., var. Tebonnet, RICE) were included.
(§4) All plants were grown in 10 cm square plastic pots which were filled with a sandy loam soil mix. For pre-emerge tests, seeds were planted one day prior to application of the test compounds. For post-emerge tests, seeds were planted 8-21 days prior to the test to allow emergence and good foliage development prior to application of the test substances. At the time of the post-emerge application, plants of all species were usually at the 2-3 leaf stage of development.
(§5) All test compounds Were dissolved in acetone and applied to the test units in a volume of 187 l /ha. Test materials were applied at rates ranging from 15 g ai/ha to 1000 g ai/ha using a track sprayer equipped with a TJ8001E even flow flat fan spray nozzle. Plants were arranged on a shelf so that the top of the canopy (post-emerge) or top of the soil surface (pre-emerge) was 40-45 cm below the nozzle. Pressurized air was used to force the test solution through the nozzle as it was mechanically advanced (via electrically driven chain drive) over the top of all test plants/pots. This application simulates a typical commercial field herbicide application.
(§6) In the post-emerge test, a commercial non-ionic surfactant was also included (0.25% v/v) to enhance wetting of the leaf surfaces of target plants. Immediately after application, test units of the pre-emerge applications were watered at the soil surface to incorporate the test materials. Subsequently, these test units were bottom-watered. Post-emerge test units were always bottom-watered.
(§7) At 14 days after application of the test materials, phytotoxicity ratings were recorded. A rating scale of 0-100 was used as previously described in Research Methods in Weed Science, 2nd edition, B. Truelove, Ed., Southern Weed Science Society, Auburn University, Auburn, Ala. 1977. Briefly, “0” corresponds to no damage and “100” corresponds to complete death of all plants in the test unit. This scale was used both to determine efficacy against weed species and damage to crop species. Herbicide activity data for various compounds of this invention, which are shown by compound No. in Tables 1-8, are shown in Tables 11 and 12.

[6] = test system: ivyleaf morningglory (Ipomoea hederacea, IPOHE); test: as above; conditions: rating scale 0-100, 14 days after application
Text: as §3, §4, §5, §6, §7

[7] = test system: lambsquarters (Chenopodium album, CHEAL); test: as above; conditions: rating scale 0-100, 14 days after application
Text: as §3, §4, §5, §6, §7

[8] = test system: sicklepod (Cassia obtusifolia, CASOB); test: as above; conditions: rating scale 0-100, 14 days after application
Text: as §3, §4, §5, §6, §7

[9] = test system: green foxtail (Setaria viridis, SETVI); test: as above; conditions: rating scale 0-100, 14 days after application
Text: as §3, §4, §5, §6, §7

[10] = test system: large crabgrass (Digitaria sanguinalis, DIGSA); test: as above; conditions: rating scale 0-100, 14 days after application
Text: as §3, §4, §5, §6, §7

[11] = test system: barnyardgrass (Echinochloa crus-galli, ECHCG); test: as above; conditions: rating scale 0-100, 14 days after application
Text: as §3, §4, §5, §6, §7

[12] = test system: redroot pigweed (Amaranthus retroflexus, AMARE); test: as above; conditions: rating scale 0-100, 14 days after application
Procedure, shortened: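 Compounds in acetone were track-sprayed at 187 l/ha, 15–1000 g ai/ha, onto sandy loam pots. Pre-emerge seeds were sown one day before spraying, with surface watering afterwards. Post-emerge plants were at the 2–3 leaf stage and sprayed with 0.25% v/v non-ionic surfactant. Injury was rated 0–100 at 14 days.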

[13] = test system: velvetleaf (Abutilon theophrasti, ABUTH); test: Post-emerge test, greenhouse herbicide activity screening; conditions: post-emerge, phytotoxicity rating 0-100 at 14 days after application
Text: as §3, §4, §5, §6, §7

[14] = test system: ivyleaf morningglory (Ipomoea hederacea, IPOHE); test: as above; conditions: post-emerge, phytotoxicity rating 0-100 at 14 days after application
Text: as §3, §4, §5, §6, §7

[15] = test system: redroot pigweed (Amaranthus retroflexus, AMARE); test: as above; conditions: post-emerge, phytotoxicity rating 0-100 at 14 days after application
Text: as §3, §4, §5, §6, §7

[16] = test system: lambsquarters (Chenopodium album, CHEAL); test: as above; conditions: post-emerge, phytotoxicity rating 0-100 at 14 days after application
Text: as §3, §4, §5, §6, §7

[17] = test system: sicklepod (Cassia obtusifolia, CASOB); test: as above; conditions: post-emerge, phytotoxicity rating 0-100 at 14 days after application
Text: as §3, §4, §5, §6, §7

[18] = test system: green foxtail (Setaria viridis, SETVI); test: as above; conditions: post-emerge, phytotoxicity rating 0-100 at 14 days after application
Text: as §3, §4, §5, §6, §7

[19] = test system: large crabgrass (Digitaria sanguinalis, DIGSA); test: as above; conditions: post-emerge, phytotoxicity rating 0-100 at 14 days after application
Text: as §3, §4, §5, §6, §7

[20] = test system: barnyardgrass (Echinochloa crus-galli, ECHCG); test: as above; conditions: post-emerge, phytotoxicity rating 0-100 at 14 days after application
Text: as §3, §4, §5, §6, §7

Question: Which “Pre-emerge phytotoxicity rating, crop damage CORN” value ([1]; 63 g ai/ha) does the source give for `COc1c(Cl)cc(F)c(N2C(=O)C3CCCCN3C2=S)c1NC(=O)c1ccc2ccccc2c1` (stereo not shown) [12-5] here?
Answer: 0

Question: What about the “Pre-emerge phytotoxicity rating, crop damage CORN” value ([1]; 250 g ai/ha) of the same compound?
Answer: 0

Question: And the “Pre-emerge phytotoxicity rating, crop damage RICE” value ([2]; 63 g ai/ha)?
Answer: 0

Question: And the “Pre-emerge phytotoxicity rating, crop damage RICE” value ([2]; 250 g ai/ha)?
Answer: 10

Question: And the “Post-emerge Herbicidal Activity CORN” value ([3]; 63 g ai/ha)?
Answer: 25

Question: And the “Post-emerge Herbicidal Activity CORN” value ([3]; 250 g ai/ha)?
Answer: 20

Question: What about the “Post-emerge Herbicidal Activity RICE” value ([4]; 63 g ai/ha) of the same compound?
Answer: 20

Question: What about the “Post-emerge Herbicidal Activity RICE” value ([4]; 250 g ai/ha) of the same compound?
Answer: 15

Question: What about the “Pre-emerge herbicidal activity, phytotoxicity rating ABUTH” value ([5]; 63 g ai/ha) of the same compound?
Answer: 70

Question: What about the “Pre-emerge herbicidal activity, phytotoxicity rating ABUTH” value ([5]; 250 g ai/ha) of the same compound?
Answer: 90

Question: What about the “Pre-emerge herbicidal activity, phytotoxicity rating IPOHE” value ([6]; 63 g ai/ha) of the same compound?
Answer: 0

Question: What about the “Pre-emerge herbicidal activity, phytotoxicity rating IPOHE” value ([6]; 250 g ai/ha) of the same compound?
Answer: 20

Question: What about the “Pre-emerge herbicidal activity, phytotoxicity rating CHEAL” value ([7]; 63 g ai/ha) of the same compound?
Answer: 90

Question: And the “Pre-emerge herbicidal activity, phytotoxicity rating CHEAL” value ([7]; 250 g ai/ha)?
Answer: 100

Question: And the “Pre-emerge herbicidal activity, phytotoxicity rating CASOB” value ([8]; 63 g ai/ha)?
Answer: 0

Question: And the “Pre-emerge herbicidal activity, phytotoxicity rating CASOB” value ([8]; 250 g ai/ha)?
Answer: 80

Question: What about the “Pre-emerge herbicidal activity, phytotoxicity rating SETVI” value ([9]; 63 g ai/ha) of the same compound?
Answer: 0

Question: What about the “Pre-emerge herbicidal activity, phytotoxicity rating SETVI” value ([9]; 250 g ai/ha) of the same compound?
Answer: 0

Question: And the “Pre-emerge herbicidal activity, phytotoxicity rating DIGSA” value ([10]; 63 g ai/ha)?
Answer: 0

Question: And the “Pre-emerge herbicidal activity, phytotoxicity rating DIGSA” value ([10]; 250 g ai/ha)?
Answer: 10

Question: And the “Pre-emerge herbicidal activity, phytotoxicity rating ECHCG” value ([11]; 63 g ai/ha)?
Answer: 0

Question: And the “Pre-emerge herbicidal activity, phytotoxicity rating ECHCG” value ([11]; 250 g ai/ha)?
Answer: 40

Question: What about the “Pre-emerge herbicidal activity, phytotoxicity rating AMARE” value ([12]; 63 g ai/ha) of the same compound?
Answer: 30

Question: What about the “Pre-emerge herbicidal activity, phytotoxicity rating AMARE” value ([12]; 250 g ai/ha) of the same compound?
Answer: 100

Question: What about the “Post-emerge Herbicidal Activity ABUTH” value ([13]; 63 g ai/ha) of the same compound?
Answer: 100

Question: And the “Post-emerge Herbicidal Activity ABUTH” value ([13]; 250 g ai/ha)?
Answer: 100

Question: What about the “Post-emerge Herbicidal Activity IPOHE” value ([14]; 63 g ai/ha) of the same compound?
Answer: 100

Question: And the “Post-emerge Herbicidal Activity IPOHE” value ([14]; 250 g ai/ha)?
Answer: 99

Question: And the “Post-emerge Herbicidal Activity AMARE” value ([15]; 63 g ai/ha)?
Answer: 70

Question: And the “Post-emerge Herbicidal Activity AMARE” value ([15]; 250 g ai/ha)?
Answer: 85

Question: And the “Post-emerge Herbicidal Activity CHEAL” value ([16]; 63 g ai/ha)?
Answer: 100

Question: What about the “Post-emerge Herbicidal Activity CHEAL” value ([16]; 250 g ai/ha) of the same compound?
Answer: 99

Question: And the “Post-emerge Herbicidal Activity CASOB” value ([17]; 63 g ai/ha)?
Answer: 40

Question: And the “Post-emerge Herbicidal Activity CASOB” value ([17]; 250 g ai/ha)?
Answer: 60

Question: And the “Post-emerge Herbicidal Activity SETVI” value ([18]; 63 g ai/ha)?
Answer: 20

Question: And the “Post-emerge Herbicidal Activity SETVI” value ([18]; 250 g ai/ha)?
Answer: 10

Question: And the “Post-emerge Herbicidal Activity DIGSA” value ([19]; 63 g ai/ha)?
Answer: 0

Question: What about the “Post-emerge Herbicidal Activity DIGSA” value ([19]; 250 g ai/ha) of the same compound?
Answer: 10

Question: And the “Post-emerge Herbicidal Activity ECHCG” value ([20]; 63 g ai/ha)?
Answer: 10

Question: What about the “Post-emerge Herbicidal Activity ECHCG” value ([20]; 250 g ai/ha) of the same compound?
Answer: 10
